Test [1] concerns rat brain transient middle cerebral artery occlusion (tMCAO) IR injury. The test can be described thus: In vivo rat brain ischaemia and reperfusion (tMCAO): neurological score, infarct, histology. Also noted: Median Neurological Score / Average Neurological Score: scale not given here. Particulars: for Average Neurological Score / Median Neurological Score: dimethyl malonate 6 mg/kg/min i.v. infusion. The text has this: The following murine models of warm ischaemia and/or IR injury were used: global ischaemia of ex vivo perfused mouse heart; in vivo mouse left descending coronary artery (LAD) ligation; in vivo rat brain transient middle cerebral artery occlusion (tMCAO); in vivo mouse kidney ischaemia by monolateral occlusion of the renal hilum; in vivo global ischaemia of the liver following cervical dislocation. The modelling of metabolic pathways in the ischaemic myocardium was done as described previously^11. The cell models of IR injury used were adult isolated primary rat cardiomyocytes and the mouse C2C12 myoblast cell line. Fluorescence within cardiomyocytes was assessed by laser scanning confocal microscopy. DHE fluorescence was used to measure ROS production, TMRM fluorescence in de-quench mode was used for mitochondrial membrane potential and NAD(P)H autofluorescence was used to assess the reduction potential of the NAD(P)H pools^8. To assess metabolic pathways in the ex vivo perfused mouse heart ^13C-labelled glucose, glutamine or aspartate were infused into the isolated heart and the ^13C isotopologues of CAC metabolites were then quantified by LC-MS. The effects of metabolic inhibitors on ischaemic metabolite accumulation and the distribution of ^13C-labels were assessed by i.v. infusion of metabolic inhibitors followed by LC-MS analysis of tissue metabolites. The redox state of the cardiac CoQ pool was assessed by LC. The amelioration of in vivo IR injury by metabolic inhibitors was assessed by i.v. administration of the inhibitors followed by measurement of the infarct size in the heart by triphenyltetrazolium chloride staining and in the brain by determining neurological function and infarct size by histology. Male spontaneously hypertensive stroke prone (SHRSP) rats from the colony maintained at the University of Glasgow (270-310 g) were anaesthetised with 5% isoflurane in oxygen and were intubated and ventilated throughout surgery (˜2.5% isoflurane/oxygen). Body temperature was maintained at 37±0.5° C. Animals underwent pre-stroke burrhole surgery^35 before transient middle cerebral artery occlusion (tMCAO, 45 min). Briefly, a silicone-coated monofilament was advanced (Doccol Corporation, USA) was advanced through the common carotid artery to block the origin of the MCA^36. Animals were maintained under anaesthesia during ischaemia. Immediately following removal of the filament, or after 5 mins of reperfusion, the brain was removed following cervical dislocation and infarct tissue separated from surrounding tissue on the ipsilateral side and snap frozen in liquid nitrogen for metabolomic analysis. Corresponding regions were taken from the contralateral side. […] These rats were then sacrificed by transcardiac perfusion fixation and the infarct area was assessed across 7 coronal levels following hematoxylin and eosin staining^39.

For test [2], the system named is adult primary rat cardiomyocytes. Nature of the test: ROS production (DHE oxidation) in adult primary cardiomyocytes during in situ IR. The test is classed as cell-based. Conditions: 40 min ischaemia then reoxygenation, 4 mM in ischaemic buffer. On the procedure:
FIG. 13: Tracking cardiomyocytes ROS levels in primary cardiomyocytes during in situ IR. Primary rat cardiomyocytes were subjected to 40 min ischaemia and reoxygenation with ROS levels tracked throughout the experiment by ratiometric measurement of dihydroethidium (DHE) oxidation. […] Representative traces of each condition are shown. The highlighted window indicates the period of the experiment expanded in detail in FIG. 3.a.
Male Sprague-Dawley rats (300-370 g) were terminally anaesthetised via IP injections of 200 mg/kg sodium pentobarbitone and 330 U/kg heparin. Hearts were excised and retrograde perfused on a Langendorff-perfusion system with 13 mL/min oxygenated KH buffer at 37° C. Cells were isolated by collagenase digestion using standard methods^41. […]
Cells were imaged within 36 hours of plating. […] Simulated ischaemia was achieved by replacing the buffer with a pre-gassed, hypoxic recording buffer simulating ischaemia (as above but lacking glucose and containing 10 mM sodium lactate, 14.8 mM KCl; pH 6.4) and by covering the heated stage with a transparent, gas-impermeant lid, forming a small chamber into which argon was forced to maintain hypoxia. pO2 was routinely measured as <2.0 mm Hg during simulated ischaemia. […]
ROS production was estimated by oxidation of DHE. […] All measured cell parameters were analysed with Fiji image processing software.

The source of these data is patent US10603298B2, “Succinate dehydrogenase inhibitors (SDHi's)” (Medical Research Council, priority 2014, dated 2020).

For the compound `COC(=O)CC(=O)OC` [dimethyl malonate], in test [1] (Baseline, tMCAO rats), the “Average Neurological Score” value was 31.67 and the “Median Neurological Score” value is reported as 32.00. Besides, in test [1] (Day 1 after tMCAO), the “Average Neurological Score” value worked out at 22.67 and the “Median Neurological Score” value stood at 22.00. Besides, in test [1] (Day 2 after tMCAO), the “Average Neurological Score” value is given as 24.00 and the “Median Neurological Score” value is on record as 24.00. In test [1] (Day 3 after tMCAO), the “Average Neurological Score” value amounted to 24.33 and the “Median Neurological Score” value was found to be 25.00. Besides, in test [1] (i.v. infusion during rat tMCAO), the “neurological function associated with stroke” value is “preventing the decline in neurological function”, the “protection against brain IR injury” value is “protective” and the “volume of infarcted brain tissue caused by IR injury” value is reported as “decreasing the volume of infarcted brain tissue”. Also, the “pyknotic nuclear morphology and vacuolation of the neuropil (histology)” value in test [1] (i.v. infusion during rat tMCAO, hematoxylin and eosin) is “reducing the pyknotic nuclear morphology and vacuolation of the neuropil”. Further, the “ROS production / DHE oxidation upon reperfusion” value in test [2] was “reduced DHE oxidation upon reperfusion”.
